Data reported in patent publication US8623901B2, “Compounds for the treatment of CNS disorders” (Boehringer Ingelheim International GmbH, priority 2009, dated 2014).

Columns and labels:
[1] = biological target: human PDE9A2 (Homo sapiens (Human), UniProt O76083); test: PDE9A2 enzymatic activity assay (scintillation proximity assay); type: biochemical
Description: As enzyme source, lysate (PBS with 1% Triton X-100 supplemented with protease inhibitors, cell debris removed by centrifugation at 13.000 rpm for 30 min) of SF 9 cell expressing the human PDE9A2 was used. The total protein amount included in the assay varied upon infection and production efficacy of the SF9 cells and lay in the range of 0.1-100 ng.
The assays were run in 384-well format. The test reagents as well as the enzyme and the substrate were diluted in assay buffer. The assay buffer contained 50 mM Tris, 8.3 mM MgCl2, 1.7 mM EGTA, 0.1% BSA, 0.05% Tween 20; the pH of assay buffer was adjusted to 7.5.
The activity of the positive control (minus the negative control=background) is set to 100% and activity in the presence of test compound is expressed relative to these 100%.
(§1) IC50 can be calculated with GraphPadPrism or other suited software setting the positive control as 100 and the negative control as 0. For calculation of IC50 dilutions of the test compounds (substrates) are to be selected and tested following the aforementioned protocol.

[2] = biological target: PDE1C (Homo sapiens (Human), UniProt Q14123); test: PDE1C assay (SPA, analogue to the PDE9A2 assay); type: biochemical; details: ratio PDE1C IC50 / PDE9A2 IC50
Text: The reaction can be stopped by applying the same inhibitor than the one that is outlined above (1-(2-Chlorophenyl)-6-[(2R)-3,3,3-trifluoro-2-methyl-propyl]-1,5-dihydro-4H-pyrazolo[3,4-d]pyrimidine-4-one).
as §1

[3] = biological target: human PDE9A (Homo sapiens (Human), UniProt O76083); details: concentrations of up to 100 micromolar (μM); cited from earlier work
[4] = biological target: Murine PDE9A (Mus musculus (Mouse), UniProt O70628); details: cited from earlier work
Murine PDE9A, sequence (O70628 whole entry): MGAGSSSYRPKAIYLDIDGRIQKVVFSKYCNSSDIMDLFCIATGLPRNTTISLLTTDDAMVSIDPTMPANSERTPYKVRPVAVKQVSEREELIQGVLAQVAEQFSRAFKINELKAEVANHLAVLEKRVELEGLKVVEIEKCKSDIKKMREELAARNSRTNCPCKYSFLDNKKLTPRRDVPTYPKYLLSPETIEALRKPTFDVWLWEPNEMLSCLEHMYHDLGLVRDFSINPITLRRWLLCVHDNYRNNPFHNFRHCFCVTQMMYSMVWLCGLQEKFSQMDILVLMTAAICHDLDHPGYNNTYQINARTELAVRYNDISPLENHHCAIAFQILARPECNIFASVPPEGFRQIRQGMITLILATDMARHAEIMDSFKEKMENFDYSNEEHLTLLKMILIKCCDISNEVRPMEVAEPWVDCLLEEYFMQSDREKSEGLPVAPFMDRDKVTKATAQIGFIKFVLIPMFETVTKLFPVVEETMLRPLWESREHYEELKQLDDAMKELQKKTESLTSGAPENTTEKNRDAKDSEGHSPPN

human PDE9A, sequence (O76083 whole entry): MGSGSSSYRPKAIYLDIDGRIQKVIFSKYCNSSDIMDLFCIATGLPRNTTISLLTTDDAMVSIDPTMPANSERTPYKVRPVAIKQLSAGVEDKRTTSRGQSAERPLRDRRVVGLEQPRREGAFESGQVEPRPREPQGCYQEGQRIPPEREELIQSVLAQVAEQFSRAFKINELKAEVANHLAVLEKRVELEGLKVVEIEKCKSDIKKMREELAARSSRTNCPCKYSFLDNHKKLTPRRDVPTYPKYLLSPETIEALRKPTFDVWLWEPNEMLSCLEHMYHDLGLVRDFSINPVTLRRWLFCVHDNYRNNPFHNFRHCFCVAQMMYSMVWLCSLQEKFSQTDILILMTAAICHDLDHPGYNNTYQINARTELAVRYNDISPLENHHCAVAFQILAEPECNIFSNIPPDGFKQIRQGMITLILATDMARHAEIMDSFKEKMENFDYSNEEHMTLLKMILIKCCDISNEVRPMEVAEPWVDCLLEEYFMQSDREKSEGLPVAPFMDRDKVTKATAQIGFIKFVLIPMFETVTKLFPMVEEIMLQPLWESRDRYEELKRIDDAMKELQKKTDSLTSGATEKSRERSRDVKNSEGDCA
human PDE9A2, sequence (O76083 other isoform, or with tags, fused parts or gaps): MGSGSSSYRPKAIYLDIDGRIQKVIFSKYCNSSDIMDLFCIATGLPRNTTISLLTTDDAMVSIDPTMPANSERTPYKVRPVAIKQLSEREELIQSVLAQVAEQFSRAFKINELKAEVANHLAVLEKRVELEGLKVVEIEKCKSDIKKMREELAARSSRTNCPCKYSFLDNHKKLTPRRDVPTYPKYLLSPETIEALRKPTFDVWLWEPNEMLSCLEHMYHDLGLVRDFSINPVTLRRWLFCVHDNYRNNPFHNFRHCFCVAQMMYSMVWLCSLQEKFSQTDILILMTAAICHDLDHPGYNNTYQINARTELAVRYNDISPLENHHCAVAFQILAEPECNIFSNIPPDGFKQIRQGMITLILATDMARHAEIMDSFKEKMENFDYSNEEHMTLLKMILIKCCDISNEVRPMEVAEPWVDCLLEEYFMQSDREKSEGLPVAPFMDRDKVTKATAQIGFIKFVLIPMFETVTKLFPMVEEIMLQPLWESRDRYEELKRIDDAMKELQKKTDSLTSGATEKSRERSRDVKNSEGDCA

Row | Structure (SMILES) | inhibition on the isolated enzyme [3] | also measured
1 | CC(C)(C)c1cccc(-c2ccccc2Cc2nc3c(cnn3C3CCOCC3)c(=O)[nH]2)n1 [Example 259] | – | inhibition at 10 µM ([1]; PDE9A2, 10 microM test compound, read-out: I % (at 10 microM): inhibition at 10 micromolar concentration): 102%; IC50 ([1]; human PDE9A2, cGMP 20 nanomolar, read-out: IC50 values for PDE9A2 inhibition): 0.003 µM; S: selectivity values [= (IC50 for PDE1C inhibition)/(IC50 for PDE9A2 inhibition)] [2]: 942
2 | CC(C)Cn1c(=O)n(C)c(=O)c2[nH]cnc21 [IBMX] | no inhibition | inhibition of murine PDE9A ([4]; concentrations below 200 micromolar): not inhibited
3 | CC(=O)Nc1ccc(-c2c[nH]c(=O)cn2)cc1 [SKF94120] | no inhibition | –
4 | OCCN(CCO)c1nc(N2CCCCC2)c2nc(N(CCO)CCO)nc(N3CCCCC3)c2n1 [dipyridamole] | no inhibition | –
5 | COc1ccc(C2CNC(=O)C2)cc1OC1CCCC1 (stereo not shown) [rolipram] | no inhibition | –
6 | CCOC(=O)C1=C[C@]2(CC)CCCN3CCc4c(n1c1ccccc41)[C@@H]32 [vinpocetine] | no inhibition | –
7 | CCCOc1ccccc1-c1nc2nn[nH]c2c(=O)[nH]1 [zaprinast] | – | IC50 ([4]; murine PDE9A): 29 µM
